Where two headings read alike, the source gives them in different places. Peptide text beside a SMILES is read from it. * marks the point of attachment. Hydrocinnamoyl = O=C(CCc1ccccc1)*; Tos = Cc1ccc(S(=O)(=O)*)cc1

From patent US5955576A, “Inhibitors of thrombosis” (Corvas International, Inc., priority 1995, dated 1999) come the findings set out here.

One data set deals with plasmin (Homo sapiens, UniProt P00747). Put plainly: Plasmin assay, chromogenic substrate S-2251. The format is biochemical. The conditions noted are these: purified human enzyme, 30 minute incubation, HBSA pH 7.5. On the procedure:
(§1) The buffer used for all assays was HBSA (10 mM HEPES, pH 7.5, 150 mM sodium chloride, 0.1% bovine serum albumin). […] Following a 30 minute incubation at ambient temperature, 50 μL of the substrate at the concentrations specified below, was added to the wells yielding a final total volume of 200 μL. The initial velocity of chromogenic substrate hydrolysis was measured by the change in absorbance at 405 nm using a Thermo Max® Kinetic Microplate Reader over a 5 minute period in which less than 5% of the added substrate was utilized.
Plasmin catalytic activity was determined using the chromogenic substrate, S-2251 [D-valyl-L-leucyl-L-lysine-p-nirtoanilide dihydrochloride], which was obtained from Kabi Diagnostica.

The next data set has as its target T1, factor Xa (Homo sapiens, UniProt P00742).
T1 construct: Human factor Xa was prepared from purified human factor X obtained from Enzyme Research Laboratories; purchased Enzyme Research Laboratories
The data set can be described thus: Factor Xa assay, chromogenic substrate S2765. Particulars: purified human enzyme, 30 minute incubation, HBSA pH 7.5. It is filed as biochemical. The procedure:
as §1
Factor Xa catalytic activity was determined using the substrate, S2765 (N-α-benzyloxycarbonyl-D-argininyl-L-glycyl-L-arginine-p-nitroanilide dihydrochloride) which was obtained from Kabi Diagnostica. […] Human factor Xa was prepared from purified human factor X obtained from Enzyme Research Laboratories according to the method described by Bock, P. E. et al., Archives of Biochem. Biophys. 273: 375 (1989). The enzyme was diluted into HBSA prior to the assay in which the final concentration was 0.5 nM.

For the next data set, the target named is thrombin (Homo sapiens, UniProt P00734). Put plainly: Thrombin assay, chromogenic substrate Pefachrome t-PA. The format is biochemical. The conditions noted are these: purified human enzyme, 30 minute incubation, HBSA pH 7.5. On the procedure: The buffer used for all assays was HBSA (10 mM HEPES, pH 7.5, 150 mM sodium chloride, 0.1% bovine serum albumin). […] Following a 30 minute incubation at ambient temperature, 50 μL of the substrate at the concentrations specified below, was added to the wells yielding a final total volume of 200 μL.
Thrombin catalytic activity was determined using the chromogenic substrate Pefachrome t-PA (CH3 SO2 -D-hexahydrotyrosine-glycyl-L-arginine-p-nitroaniline, obtained from Pentapharm Ltd.).

The nature of data set [1]: Pharmacokinetics after oral and i.v. administration in dogs. The format is in vivo, dog. On the procedure: The pharmacodynamic and pharmacokinetic parameters of the compound of Example 34 (and same compound described in Example 91) were evaluated after oral administration in dogs. Adult beagle dogs (9-12 kg) were housed individually in standard cages, and were fed a standard certified commercial diet and tap water ad libitum. Dogs were given an oral dose of either 10 mg/kg or 20 mg/kg test compound, in 55 ml deionized water, via a gastric tube, followed by a water rinse. In a separate protocol, 5 mg/kg of test compound, in 5 ml 0.9% sodium chloride, were administered by fast bolus i.v. injection through an indwelling saphenous vein catheter. The same dogs were used for all doses and both routes of administration, with a one week wash out period between use of the dogs for the different doses and protocols. […]
(§2) The blood levels of test compound were measured by extracting the compound from plasma, separation by HPLC, and post-column derivatization with a fluorogenic functional group. The clotting time of blood was measured using an APTT assay, which measures the prolongation of the activated partial thromboplastin time (APTT) by the test compound. […]
The systemic bioavailability of the test compound administered by the oral route was calculated by comparing the AUC values (area under curve describing level of compound in blood over time) after i.v. and oral administration. […]

For data set [2], the system named is activated partial thromboplastin time (APTT). The data set can be described thus: APTT clotting time of blood samples after oral dosing in dogs. The format is in vivo, dog. The conditions noted are these: both doses (10 and 20 mg/kg). On the procedure:
The pharmacodynamic and pharmacokinetic parameters of the compound of Example 34 (and same compound described in Example 91) were evaluated after oral administration in dogs. Adult beagle dogs (9-12 kg) were housed individually in standard cages, and were fed a standard certified commercial diet and tap water ad libitum. Dogs were given an oral dose of either 10 mg/kg or 20 mg/kg test compound, in 55 ml deionized water, via a gastric tube, followed by a water rinse. In a separate protocol, 5 mg/kg of test compound, in 5 ml 0.9% sodium chloride, were administered by fast bolus i.v. injection through an indwelling saphenous vein catheter. The same dogs were used for all doses and both routes of administration, with a one week wash out period between use of the dogs for the different doses and protocols.
Blood samples were collected during the experimental period from the cephalic vein using sodium citrate (0.38% final concentration) as anticoagulant (nine volumes blood to one volume sodium citrate). […]
as §2

The test system of data set [3] is FeCl3 -induced platelet-dependent arterial thrombosis. It is filed as in vivo. Particulars: rat carotid artery. The source says: Res., 60: 269-280 (1990). […] Res., 60: 269-280 (1990). […] The animals were then euthanized.

Chain of plasmin (P00747 581-810 limits assumed): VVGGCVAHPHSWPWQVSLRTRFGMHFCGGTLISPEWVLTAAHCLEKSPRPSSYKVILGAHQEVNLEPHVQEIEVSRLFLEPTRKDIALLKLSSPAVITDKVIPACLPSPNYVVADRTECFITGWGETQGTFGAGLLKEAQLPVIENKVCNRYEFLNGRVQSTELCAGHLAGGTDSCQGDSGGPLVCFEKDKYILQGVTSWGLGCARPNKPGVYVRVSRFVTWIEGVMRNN
Chain of plasmin (P00747 97-580 partner limits assumed): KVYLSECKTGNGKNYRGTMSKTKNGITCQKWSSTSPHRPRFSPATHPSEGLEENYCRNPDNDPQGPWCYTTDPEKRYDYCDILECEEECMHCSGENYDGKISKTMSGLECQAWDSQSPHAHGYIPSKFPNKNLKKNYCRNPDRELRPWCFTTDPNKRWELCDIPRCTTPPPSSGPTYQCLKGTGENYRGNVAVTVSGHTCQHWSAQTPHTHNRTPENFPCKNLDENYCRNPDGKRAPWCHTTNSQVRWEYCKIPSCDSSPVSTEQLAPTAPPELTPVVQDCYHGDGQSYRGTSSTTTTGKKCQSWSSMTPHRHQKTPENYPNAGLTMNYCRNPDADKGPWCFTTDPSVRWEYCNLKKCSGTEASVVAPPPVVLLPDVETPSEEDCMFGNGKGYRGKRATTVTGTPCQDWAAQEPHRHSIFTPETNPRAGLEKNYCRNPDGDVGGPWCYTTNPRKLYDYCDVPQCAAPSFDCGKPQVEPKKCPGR
T1 sequence (P00742 235-488 limits assumed): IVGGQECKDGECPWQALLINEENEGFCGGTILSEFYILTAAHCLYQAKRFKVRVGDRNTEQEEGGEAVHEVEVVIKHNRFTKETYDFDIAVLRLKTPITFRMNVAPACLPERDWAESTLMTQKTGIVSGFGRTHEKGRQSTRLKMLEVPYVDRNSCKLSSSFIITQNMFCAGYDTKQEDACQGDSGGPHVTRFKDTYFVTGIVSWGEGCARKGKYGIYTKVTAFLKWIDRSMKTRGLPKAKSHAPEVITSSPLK
T1 sequence (P00742 41-179 partner limits assumed): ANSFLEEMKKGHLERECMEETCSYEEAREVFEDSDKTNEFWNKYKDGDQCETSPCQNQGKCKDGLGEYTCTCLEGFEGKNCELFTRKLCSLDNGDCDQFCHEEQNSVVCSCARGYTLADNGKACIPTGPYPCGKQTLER

What is called IC50 is the concentration at which inhibition is half-maximal. A lower IC50 goes with higher potency. Turning to `COC(=O)C[C@H](NS(=O)(=O)c1ccc2ccccc2c1)C(=O)N1CCC[C@H]1C(=O)N[C@H](C=O)CCCNC(=N)N` [2-NpSO2 -Asp(OCH3)-Pro-Arg-al, N-(2-naphthylsulfonyl)-L-aspartyl-(β-methyl ester)-L-prolyl-L-argininal], the IC50 on plasmin is 106 nM; at factor Xa, 4.3 nM; against thrombin it was 0.62 nM.

For the compound `CCCC(CCC)C(=O)N[C@@H](CC(=O)OC)C(=O)N1CCC[C@H]1C(=O)N[C@H](C=O)CCCNC(=N)N` [2PrPent-Asp(OCH3)-Pro-Arg-al, N-(2-propylpentanoyl)-L-aspartyl-β-(methyl ester)-L-prolyl-L-argininal], the IC50 against plasmin was determined as 261 nM.

With `CCCC(CCC)C(=O)N[C@@H](CC(=O)O)C(=O)N1CCC[C@H]1C(=O)N[C@H](C=O)CCCNC(=N)N` [2PrPent-Asp-Pro-Arg-al, N-(2-propylpentanoyl)-L-aspartyl-L-prolyl-L-argininal], the IC50 on plasmin was determined as 254 nM. The IC50 values of the last two compounds are within 1.5-fold of each other.

Consider `CC(C)CCC(=O)N[C@@H](CC(=O)O)C(=O)N1CCC[C@H]1C(=O)N[C@H](C=O)CCCNC(=N)N` [4MeV-Asp-Pro-Arg-al, N-(4-methylpentanoyl)-L-aspartyl-L-prolyl-L-argininal], for which 396 nM corresponded to half-maximal inhibition against plasmin (IC50).

`COC(=O)C[C@H](NS(=O)(=O)c1ccc(C)cc1)C(=O)N1CCC[C@H]1C(=O)N[C@H](C=O)CCCNC(=N)N` [(4-MePh)SO2 -Asp(OCH3)-Pro-Arg-al, N-(4-methylphenylsulfonyl)-L-aspartyl-(β-methyl ester)-L-prolyl-L-argininal] (Tos-Asp(OMe)-Pro-Arg-aldehyde): the IC50 against plasmin is 111 nM; at factor Xa it was 9.5 nM; against thrombin it was 1.1 nM.

For the compound `N=C(N)NCCC[C@@H](C=O)NC(=O)[C@@H]1CCCN1C(=O)[C@H](CC(=O)O)NC(=O)CC1CCCCC1` [ChxAc-Asp-Pro-Arg-al, N-(1-cyclohexylacetyl)-L-aspartyl-L-prolyl-L-argininal], the half-inhibitory concentration (IC50) on plasmin was 75 nM; at factor Xa it was 15 nM; against thrombin, 47 nM.

On to `N=C(N)NCCC[C@@H](C=O)NC(=O)[C@@H]1CCCN1C(=O)[C@H](CC(=O)O)NC(=O)CCC1CCCCC1` [ChxPA-Asp-Pro-Arg-al, N-(3-cyclohexanepropionyl)-L-aspartyl-L-prolyl-L-argininal], for which the IC50 against plasmin was 250 nM.

Consider `CCCC(CCC)C(=O)N[C@@H](CC(=O)OC)C(=O)N1CCC[C@H]1C(=O)N[C@H](C=O)CCCNC(=N)N.O=C(O)C(F)(F)F` [Example 34, N-(2-propylpentanoyl)-L-aspartyl-beta-(methyl ester)-L-prolyl-L-argininal, trifluoroacetate salt], for which the “time to maximum blood level of compound” value in data set [1] lay in the range of 45 to 60 min. In addition, in data set [2], the “duration of elevated APTT” value was “up to two hours” and the “time to significant elevation of APTT” value fell in the range of 20 to 30 min.

`N=C(N)NCCC[C@@H](C=O)NC(=O)[C@@H]1CCCN1C(=O)[C@H](CC(=O)O)NC(=O)CCc1ccccc1` [HCA-Asp-Pro-Arg-al, N-(3-phenylpropionyl)-L-aspartyl-L-prolyl-L-argininal] (Hydrocinnamoyl-Asp-Pro-Arg-aldehyde) yielded an IC50 on plasmin of 481 nM. In addition, the “Incidence of Occlusion” value in data set [3] (Group1, 25 μg/kg/min i.v. infusion) was 5/6; in data set [3] (Group2, 50 μg/kg/min i.v. infusion) it was 1/5; in data set [3] (Group3, 100 μg/kg/min i.v. infusion), 0/5.

Regarding `CCCCS(=O)(=O)N[C@@H](CC(=O)OC)C(=O)N1CCC[C@H]1C(=O)N[C@H](C=O)CCCNC(=N)N` [n-BuSO2 -Asp(OCH3)-Pro-Arg-al, N-(butylsulfonyl)-L-aspartyl-(β-methyl ester)-L-prolyl-L-argininal], the figures for the IC50 against plasmin, on factor Xa and at thrombin were 250 nM, 15 nM and 3.7 nM, respectively.

On to “N-phenylsulfonyl-L-aspartyl-(β-methyl ester)-L-prolyl-L-argininal [BzlSO2 -Asp(OCH3)-Pro-Arg-al]”, for which the concentration for half-maximal inhibition (IC50) against factor Xa amounted to 30 nM; on thrombin, 5 nM.
